In ChEMBL document CHEMBL1136490, “Synthesis of non-immunosuppressive cyclophilin-Binding cyclosporin A derivatives as potential anti-HIV-1 drugs” (Bioorg Med Chem Lett, 2003):

Tests used:
[1] = target: Peptidyl-prolyl cis-trans isomerase A (Homo sapiens, UniProt P62937); assay: Immunosuppressive activity was measured by inhibition of the IL-2 production in Jurkat cells.; format: functional, cell-based
[2] = target: Human immunodeficiency virus type 1 reverse transcriptase (Human immunodeficiency virus 1, UniProt Q72547); assay: In vitro inhibitory activity against HIV-1 RT in CEM4 cell line; format: cell-based

Sequence of Peptidyl-prolyl cis-trans isomerase A (P62937 whole entry): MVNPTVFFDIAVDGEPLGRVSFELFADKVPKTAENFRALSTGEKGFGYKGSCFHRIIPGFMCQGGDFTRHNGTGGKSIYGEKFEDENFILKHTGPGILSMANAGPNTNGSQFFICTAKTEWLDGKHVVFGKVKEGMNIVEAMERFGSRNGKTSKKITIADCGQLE

| SMILES | IC50 [1] [nM] | IC50 [2] [nM] |
| --- | --- | --- |
| C/C=C/C[C@@H](C)[C@@H](O)[C@H]1C(=O)N[C@@H](CC)C(=O)N(C)[C@H](SCCN(CC)CC)C(=O)N(C)[C@@H](CC(C)C)C(=O)N[C@@H](C(C)C)C(=O)N(C)[C@@H](CC(C)C)C(=O)N[C@@H](C)C(=O)N[C@H](C)C(=O)N(C)[C@@H](CC(C)C)C(=O)N(C)[C@@H](CC(C)C)C(=O)N(C)[C@@H](C(C)C)C(=O)N1C | 15 | 2.5 |
| C/C=C/C[C@@H](C)[C@@H](O)[C@H]1C(=O)N[C@@H](CC)C(=O)N(C)[C@H](SC)C(=O)N(C)[C@@H](CC(C)(C)O)C(=O)N[C@@H](C(C)C)C(=O)N(C)[C@@H](CC(C)C)C(=O)N[C@@H](C)C(=O)N[C@H](C)C(=O)N(C)[C@@H](CC(C)C)C(=O)N(C)[C@@H](CC(C)C)C(=O)N(C)[C@@H](C(C)C)C(=O)N1C | 110 | 84 |
| C/C=C/C[C@@H](C)[C@@H](O)[C@H]1C(=O)N[C@@H](CC)C(=O)N(C)[C@H](SCCN(C)C)C(=O)N(C)[C@@H](CC(C)C)C(=O)N[C@@H](C(C)C)C(=O)N(C)[C@@H](CC(C)C)C(=O)N[C@@H](C)C(=O)N[C@H](C)C(=O)N(C)[C@@H](CC(C)C)C(=O)N(C)[C@@H](CC(C)C)C(=O)N(C)[C@@H](C(C)C)C(=O)N1C | 47 | 35 |
| C/C=C/C[C@@H](C)[C@@H](O)[C@H]1C(=O)N[C@@H](CC)C(=O)N(C)[C@H](SCCN2CCCCC2)C(=O)N(C)[C@@H](CC(C)(C)O)C(=O)N[C@@H](C(C)C)C(=O)N(C)[C@@H](CC(C)C)C(=O)N[C@@H](C)C(=O)N[C@H](C)C(=O)N(C)[C@@H](CC(C)C)C(=O)N(C)[C@@H](CC(C)C)C(=O)N(C)[C@@H](C(C)C)C(=O)N1C | 882 | 19.5 |
| C/C=C/C[C@@H](C)[C@@H](O)[C@H]1C(=O)N[C@@H](CC)C(=O)N(C)[C@H](SCCN(C)C(C)(C)C)C(=O)N(C)[C@@H](CC(C)(C)O)C(=O)N[C@@H](C(C)C)C(=O)N(C)[C@@H](CC(C)C)C(=O)N[C@@H](C)C(=O)N[C@H](C)C(=O)N(C)[C@@H](CC(C)C)C(=O)N(C)[C@@H](CC(C)C)C(=O)N(C)[C@@H](C(C)C)C(=O)N1C | 1570 | 43 |
| C/C=C/C[C@@H](C)[C@@H](O)[C@H]1C(=O)N[C@@H](CC)C(=O)N(C)[C@H](SCCN(C)C(C)C)C(=O)N(C)[C@@H](CC(C)C)C(=O)N[C@@H](C(C)C)C(=O)N(C)[C@@H](CC(C)C)C(=O)N[C@@H](C)C(=O)N[C@H](C)C(=O)N(C)[C@@H](CC(C)C)C(=O)N(C)[C@@H](CC(C)C)C(=O)N(C)[C@@H](C(C)C)C(=O)N1C | 61 | 19.5 |
| C/C=C/C[C@@H](C)[C@@H](O)[C@H]1C(=O)N[C@@H](CC)C(=O)N(C)[C@H](SCCN(C)C(C)(C)C)C(=O)N(C)[C@@H](CC(C)C)C(=O)N[C@@H](C(C)C)C(=O)N(C)[C@@H](CC(C)C)C(=O)N[C@@H](C)C(=O)N[C@H](C)C(=O)N(C)[C@@H](CC(C)C)C(=O)N(C)[C@@H](CC(C)C)C(=O)N(C)[C@@H](C(C)C)C(=O)N1C | 277 | 24 |
| C/C=C/C[C@@H](C)[C@@H](O)[C@H]1C(=O)N[C@@H](CC)C(=O)N(C)[C@H](SCCO)C(=O)N(C)[C@@H](CC(C)(C)O)C(=O)N[C@@H](C(C)C)C(=O)N(C)[C@@H](CC(C)C)C(=O)N[C@@H](C)C(=O)N[C@H](C)C(=O)N(C)[C@@H](CC(C)C)C(=O)N(C)[C@@H](CC(C)C)C(=O)N(C)[C@@H](C(C)C)C(=O)N1C | 959 | 80 |
| C/C=C/C[C@@H](C)[C@@H](O)[C@H]1C(=O)N[C@@H](CC)C(=O)N(C)[C@H](SC)C(=O)N(C)[C@@H](CC(C)C)C(=O)N[C@@H](C(C)C)C(=O)N(C)[C@@H](CC(C)C)C(=O)N[C@@H](C)C(=O)N[C@H](C)C(=O)N(C)[C@@H](CC(C)C)C(=O)N(C)[C@@H](CC(C)C)C(=O)N(C)[C@@H](C(C)C)C(=O)N1C | 3 | 65.5 |
| C/C=C/C[C@@H](C)[C@@H](O)[C@H]1C(=O)N[C@@H](CC)C(=O)N(C)[C@H](SCCN2CCCCC2)C(=O)N(C)[C@@H](CC(C)C)C(=O)N[C@@H](C(C)C)C(=O)N(C)[C@@H](CC(C)C)C(=O)N[C@@H](C)C(=O)N[C@H](C)C(=O)N(C)[C@@H](CC(C)C)C(=O)N(C)[C@@H](CC(C)C)C(=O)N(C)[C@@H](C(C)C)C(=O)N1C | 97 | 72 |
| C/C=C/C[C@@H](C)[C@@H](O)[C@H]1C(=O)N[C@@H](CC)C(=O)N(C)[C@H](SCCO)C(=O)N(C)[C@@H](CC(C)C)C(=O)N[C@@H](C(C)C)C(=O)N(C)[C@@H](CC(C)C)C(=O)N[C@@H](C)C(=O)N[C@H](C)C(=O)N(C)[C@@H](CC(C)C)C(=O)N(C)[C@@H](CC(C)C)C(=O)N(C)[C@@H](C(C)C)C(=O)N1C | 19 | 70 |
| C/C=C/C[C@@H](C)[C@@H](O)[C@H]1C(=O)N[C@@H](CC)C(=O)N(C)[C@H](SCCN(CC)CC)C(=O)N(C)[C@@H](CC(C)(C)O)C(=O)N[C@@H](C(C)C)C(=O)N(C)[C@@H](CC(C)C)C(=O)N[C@@H](C)C(=O)N[C@H](C)C(=O)N(C)[C@@H](CC(C)C)C(=O)N(C)[C@@H](CC(C)C)C(=O)N(C)[C@@H](C(C)C)C(=O)N1C | 6050 | 47 |
| C/C=C/C[C@@H](C)[C@@H](O)[C@H]1C(=O)N[C@@H](CC)C(=O)N(C)CC(=O)N(C)[C@@H](C[C@@H](C)CC)C(=O)N[C@@H](C(C)C)C(=O)N(C)[C@@H](CC(C)C)C(=O)N[C@@H](C)C(=O)N[C@H](C)C(=O)N(C)[C@@H](CC(C)C)C(=O)N(C)[C@@H](CC(C)C)C(=O)N(C)[C@@H](C(C)C)C(=O)N1C | 934 | 293 |
| C/C=C/C[C@@H](C)[C@@H](O)[C@H]1C(=O)N[C@@H](CC)C(=O)N(C)[C@H](SCCn2ccnc2)C(=O)N(C)[C@@H](CC(C)C)C(=O)N[C@@H](C(C)C)C(=O)N(C)[C@@H](CC(C)C)C(=O)N[C@@H](C)C(=O)N[C@H](C)C(=O)N(C)[C@@H](CC(C)C)C(=O)N(C)[C@@H](CC(C)C)C(=O)N(C)[C@@H](C(C)C)C(=O)N1C | 165 | 80.5 |
| C/C=C/C[C@@H](C)[C@@H](O)[C@H]1C(=O)N[C@@H](CC)C(=O)N(C)[C@H](SCCN2CCOCC2)C(=O)N(C)[C@@H](CC(C)C)C(=O)N[C@@H](C(C)C)C(=O)N(C)[C@@H](CC(C)C)C(=O)N[C@@H](C)C(=O)N[C@H](C)C(=O)N(C)[C@@H](CC(C)C)C(=O)N(C)[C@@H](CC(C)C)C(=O)N(C)[C@@H](C(C)C)C(=O)N1C | 128 | 101 |
| C/C=C/C[C@@H](C)[C@@H](O)[C@H]1C(=O)N[C@@H](CC)C(=O)N(C)[C@H](CO)C(=O)N(C)[C@@H](CC(C)(C)O)C(=O)N[C@@H](C(C)C)C(=O)N(C)[C@@H](CC(C)C)C(=O)N[C@@H](C)C(=O)N[C@H](C)C(=O)N(C)[C@@H](CC(C)C)C(=O)N(C)[C@@H](CC(C)C)C(=O)N(C)[C@@H](C(C)C)C(=O)N1C | 783 | – |
| C/C=C/C[C@@H](C)[C@@H](O)C1C(=O)N[C@@H](CC)C(=O)N(C)[C@H](CO)C(=O)N(C)[C@@H](CC(C)(C)O)C(=O)N[C@@H](C(C)C)C(=O)N(C)[C@@H](CC(C)C)C(=O)N[C@@H](C)C(=O)N[C@H](C)C(=O)N(C)[C@@H](CC(C)C)C(=O)N(C)[C@@H](CC(C)C)C(=O)N(C)[C@@H](C(C)C)C(=O)N1C (stereo not given in full) | – | 95 |
| C/C=C/C[C@@H](C)[C@@H](O)[C@H]1C(=O)N[C@@H](CC)C(=O)N(C)CC(=O)N(C)[C@@H](CC(C)(C)O)C(=O)N[C@@H](C(C)C)C(=O)N(C)[C@@H](CC(C)C)C(=O)N[C@@H](C)C(=O)N[C@H](C)C(=O)N(C)[C@@H](CC(C)C)C(=O)N(C)[C@@H](CC(C)C)C(=O)N(C)[C@@H](C(C)C)C(=O)N1C | 166 | – |
| C/C=C/C[C@@H](C)[C@@H](O)C1C(=O)N[C@@H](CC)C(=O)N(C)CC(=O)N(C)[C@@H](CC(C)(C)O)C(=O)N[C@@H](C(C)C)C(=O)N(C)[C@@H](CC(C)C)C(=O)N[C@@H](C)C(=O)N[C@H](C)C(=O)N(C)[C@@H](CC(C)C)C(=O)N(C)[C@@H](CC(C)C)C(=O)N(C)[C@@H](C(C)C)C(=O)N1C (stereo not given in full) | – | 138 |
| C/C=C/C[C@@H](C)[C@@H](O)[C@H]1C(=O)N[C@@H](CC)C(=O)N(C)[C@H](SCCN(C)C)C(=O)N(C)[C@@H](CC(C)(C)O)C(=O)N[C@@H](C(C)C)C(=O)N(C)[C@@H](CC(C)C)C(=O)N[C@@H](C)C(=O)N[C@H](C)C(=O)N(C)[C@@H](CC(C)C)C(=O)N(C)[C@@H](CC(C)C)C(=O)N(C)[C@@H](C(C)C)C(=O)N1C [SCY 635] | – | 45 |
